Results taken from patent US5124146A, “Differential delivery of therapeutic agents across the blood brain barrier” (The State of Oregon Acting by and through the State Board …, priority 1991, dated 1992).
Values joined by “and” are separate entries in the source; they are usually repeats but may differ in a detail not shown here. Identical values can stand only once.

Experiments:
[1] = percent clearance of activity from serum by perfusion; type: in vivo, Sprague-Dawley rat; settings: for C1: percent clearance of activity from serum: individual rat, postperfusion/preperfusion × 100
Protocol: Subsequently, dosages of ^125 I-gentamicin were administered intravenously.
C1: Percent clearance of activity from serum

serum proteins = assay: non-specific precipitation/binding of gentamicin to serum proteins and tissue (pre-antibody serum, or non-immune serum); type: in vivo, Sprague-Dawley rat; settings: non-immune serum, pre and post serum
Excerpt: (§1) Pre: Precipitable radioactivity from serum prior to antibody
(§2) Post: Precipitable radioactivity from serum after antibody administration
(§3) PPer: Precipitable radioactivity from serum after perfusion of rat
(§4) % Bound: Percent precipitable radioactivity from tissue sample

antigentamicin antibody = assay: precipitable radioactivity (% bound) in tissue and serum after antigentamicin antibody (immune serum); type: in vivo
Excerpt: as §1, §2, §3, §4

[2] = injected directly into the rat brain; cited from earlier work

Compound | C1: percent clearance of activity from serum ([1]; Immune serum) | C1: percent clearance of activity from serum, mean value ([1]; Immune serum) [%] | C1: percent clearance of activity from serum ([1]; Non immune serum) | C1: percent clearance of activity from serum, mean value ([1]; Non immune serum) [%] | non-specific precipitation with serum proteins (in words) (serum proteins) | % Bound: percent precipitable radioactivity from tissue sample, LH (non abscess bearing hemisphere) (antigentamicin antibody; individual rat) | % Bound, Post: precipitable radioactivity from serum after antibody administration (antigentamicin antibody; individual rat, 15 minutes after antibody) | % Bound, P-Per: precipitable radioactivity from serum after perfusion of rat (antigentamicin antibody; individual rat, after perfusion) | % Bound (tissue), AB (abscess), mean value (antigentamicin antibody; mean) [%] | % Bound (tissue), LH (non abscess bearing hemisphere), mean value (antigentamicin antibody; mean) [%] | % Bound, Post: serum precipitation after antibody, mean value (antigentamicin antibody; mean, 15 minutes after antibody) [%] | % Bound, P-Per: serum precipitation after perfusion, mean value (antigentamicin antibody; mean, after perfusion) [%] | effect on BBB permeability [2]
gentamicin | 99% and 97% and 92% and 95% and 94% and 96% | 96 | 84% and 86% and 85% | 85 | nonspecifically precipitates with serum proteins | 49% and 55% and 52% and 41% and 50% | 97% and 96% and 94% | 75% and 70% and 79% and 77% | 56 | 51 | 96 | 70 | 
CCCCC/C=C\C/C=C\C/C=C\C/C=C\CCCC(=O)O [arachidonic acid] |  |  |  |  |  |  |  |  |  |  |  |  | increase BBB permeability
